According to patent US20220298213A1, “IN VIVO ENGINEERED CEREBLON PROTEIN” (Vividion Therapeutics, Inc., priority 2018, published 2022):
Values belong to the compound of their own block, whether it stands above or below them.

Columns and labels:
Type in all cases: binding
BTK_481 = biological target: T1, BTK_481 (Homo sapiens, UniProt Q06187); test: Probe labeling at native and denatured states after pretreatment (Table 2); settings: screening concentration
T1 construct: In each the cell lysate was pretreated with compound; endogenous in cells

CRBN-318 = CRBN-318 (Homo sapiens, UniProt Q96SW2); test: as above; set-up: endogenous in cells; host or cells: cell lysate
Experimental: (§1) To determine whether the co-inhibition of C287 and C318 was due to a direct or indirect mechanism, CRBN was pretreated with various Michael acceptor compounds and then tested for probe labeling in its native and denatured states.
(§2) In each the cell lysate was pretreated with compound, for native state data the probe was immediately added and for denatured data the probe was added after an additional step of denaturation (schematic shown in FIG. 4).

CRBN-287 = CRBN-287 (Homo sapiens, UniProt Q96SW2); test: as above; set-up: endogenous in cells; host or cells: cell lysate
Experimental: as §1, §2

CRBN_205 = biological target: T2, CRBN_205 (Homo sapiens, UniProt Q96SW2); test: as above
T2 construct: endogenous in cells; host or cells: cell lysate
Experimental: as §1, §2

CRBN_310 = biological target: T3, CRBN_310 (Homo sapiens, UniProt Q96SW2); test: as above
T3 construct: endogenous in cells; host or cells: cell lysate
Experimental: as §1, §2

CRBN_234 = biological target: T4, CRBN_234 (Homo sapiens, UniProt Q96SW2); test: as above
T4 construct: endogenous in cells; host or cells: cell lysate
Experimental: as §1, §2

CRBN_326 = biological target: T5, CRBN_326 (Homo sapiens, UniProt Q96SW2); test: as above
T5 construct: endogenous in cells; host or cells: cell lysate
Experimental: as §1, §2

CRBN_322 = biological target: T6, CRBN_322 (Homo sapiens, UniProt Q96SW2); test: as above
T6 construct: endogenous in cells; host or cells: cell lysate
Experimental: as §1, §2

CRBN_188 = biological target: T7, CRBN_188 (Homo sapiens, UniProt Q96SW2); test: as above
T7 construct: endogenous in cells; host or cells: cell lysate
Experimental: as §1, §2

CRBN_343 = biological target: T8, CRBN_343 (Homo sapiens, UniProt Q96SW2); test: as above
T8 construct: endogenous in cells; host or cells: cell lysate
Experimental: as §1, §2

CRBN_219 = biological target: T9, CRBN_219 (Homo sapiens, UniProt Q96SW2); test: as above
T9 construct: endogenous in cells; host or cells: cell lysate
Experimental: as §1, §2

CRBN_441 = biological target: T10, CRBN_441 (Homo sapiens, UniProt Q96SW2); test: as above
T10 construct: endogenous in cells; host or cells: cell lysate
Experimental: as §1, §2

TEC_449 = biological target: T11, TEC_449 (Homo sapiens, UniProt P42680); test: as above; settings: screening concentration
T11 construct: In each the cell lysate was pretreated with compound; endogenous in cells
T11 sequence (P42680 1-631): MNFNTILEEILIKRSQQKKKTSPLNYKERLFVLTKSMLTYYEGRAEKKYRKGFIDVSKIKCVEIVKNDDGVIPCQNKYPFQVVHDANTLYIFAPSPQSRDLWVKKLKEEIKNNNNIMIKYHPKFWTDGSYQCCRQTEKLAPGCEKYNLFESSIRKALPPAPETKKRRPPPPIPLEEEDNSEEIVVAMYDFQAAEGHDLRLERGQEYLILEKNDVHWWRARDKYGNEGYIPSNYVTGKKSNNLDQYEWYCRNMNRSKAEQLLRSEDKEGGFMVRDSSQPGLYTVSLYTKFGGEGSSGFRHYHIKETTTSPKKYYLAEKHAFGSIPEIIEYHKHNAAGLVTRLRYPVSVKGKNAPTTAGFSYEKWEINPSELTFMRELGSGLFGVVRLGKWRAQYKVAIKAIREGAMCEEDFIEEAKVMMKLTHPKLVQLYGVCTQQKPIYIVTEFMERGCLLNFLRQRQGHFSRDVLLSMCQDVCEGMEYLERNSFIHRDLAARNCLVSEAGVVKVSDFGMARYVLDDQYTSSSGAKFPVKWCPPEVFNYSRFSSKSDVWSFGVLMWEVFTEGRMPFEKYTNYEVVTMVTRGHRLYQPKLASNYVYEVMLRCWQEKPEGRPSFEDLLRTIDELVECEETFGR

CRBN Cys343 = biological target: T12, CRBN Cys343 (Homo sapiens, UniProt Q96SW2); test: Inhibition of iodoacetamide probe labeling of CRBN cysteines, cell lysate (Table 3A); settings: cell lysate, 1 h
T12 construct: endogenous in cells
Experimental: (§3) “X@Y” means that x % inhibition of iodoacetamide probe labeling was observed by treatment of cell lysate with the give compound in each row of the table for 1 h at a concentration of y micromolar. There was consistently high inhibition at C318 in addition to C287, which can be attributed to an allosteric inhibition.

CRBN Cys366 = biological target: T13, CRBN Cys366 (Homo sapiens, UniProt Q96SW2); test: as above; settings: cell lysate, 1 h
T13 construct: endogenous in cells
Experimental: as §3

CRBN Cys219 = biological target: T14, CRBN Cys219 (Homo sapiens, UniProt Q96SW2); test: as above; settings: cell lysate, 1 h
T14 construct: endogenous in cells
Experimental: as §3

CRBN Cys287 = biological target: T15, CRBN Cys287 (Homo sapiens, UniProt Q96SW2); test: as above; settings: cell lysate, 1 h; for inhibition at 500 µM: 500 micromolar
T15 construct: endogenous in cells
Experimental: as §3

CRBN Cys205 = biological target: T16, CRBN Cys205 (Homo sapiens, UniProt Q96SW2); test: as above; settings: cell lysate, 1 h
T16 construct: endogenous in cells
Experimental: as §3

CRBN Cys188 = biological target: T17, CRBN Cys188 (Homo sapiens, UniProt Q96SW2); test: as above; settings: 500 micromolar, cell lysate, 1 h
T17 construct: endogenous in cells
Experimental: as §3

CRBN Cys234 = biological target: T18, CRBN Cys234 (Homo sapiens, UniProt Q96SW2); test: as above; settings: cell lysate, 1 h
T18 construct: endogenous in cells
Experimental: as §3

CRBN Cys318 = biological target: T19, CRBN Cys318 (Homo sapiens, UniProt Q96SW2); test: as above; settings: cell lysate, 1 h
T19 construct: endogenous in cells
Experimental: as §3

[1] = read-out: % inhibition of iodoacetamide probe labeling, Cys287

T19 sequence (Q96SW2 whole entry): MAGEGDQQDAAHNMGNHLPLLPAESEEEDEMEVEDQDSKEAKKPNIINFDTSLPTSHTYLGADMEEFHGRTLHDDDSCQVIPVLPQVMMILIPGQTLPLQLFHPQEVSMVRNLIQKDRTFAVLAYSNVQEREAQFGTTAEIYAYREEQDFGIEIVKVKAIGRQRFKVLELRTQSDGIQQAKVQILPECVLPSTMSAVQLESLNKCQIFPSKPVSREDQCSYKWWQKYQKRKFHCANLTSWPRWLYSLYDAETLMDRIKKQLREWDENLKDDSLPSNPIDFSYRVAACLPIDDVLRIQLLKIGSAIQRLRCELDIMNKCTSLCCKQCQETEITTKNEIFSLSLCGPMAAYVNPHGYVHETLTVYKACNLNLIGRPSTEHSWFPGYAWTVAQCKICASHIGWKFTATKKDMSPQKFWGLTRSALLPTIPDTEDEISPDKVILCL
T14 sequence (Q96SW2 whole entry): as above
T12 sequence (Q96SW2 whole entry): as above
T13 sequence (Q96SW2 whole entry): as above
T15 sequence (Q96SW2 whole entry): as above
T18 sequence (Q96SW2 whole entry): as above
T6 sequence (Q96SW2 whole entry): as above
T3 sequence (Q96SW2 whole entry): as above
T2 sequence (Q96SW2 whole entry): as above
T7 sequence (Q96SW2 whole entry): as above
T4 sequence (Q96SW2 whole entry): as above
T16 sequence (Q96SW2 whole entry): as above
T9 sequence (Q96SW2 whole entry): as above
T1 sequence (Q06187 whole entry): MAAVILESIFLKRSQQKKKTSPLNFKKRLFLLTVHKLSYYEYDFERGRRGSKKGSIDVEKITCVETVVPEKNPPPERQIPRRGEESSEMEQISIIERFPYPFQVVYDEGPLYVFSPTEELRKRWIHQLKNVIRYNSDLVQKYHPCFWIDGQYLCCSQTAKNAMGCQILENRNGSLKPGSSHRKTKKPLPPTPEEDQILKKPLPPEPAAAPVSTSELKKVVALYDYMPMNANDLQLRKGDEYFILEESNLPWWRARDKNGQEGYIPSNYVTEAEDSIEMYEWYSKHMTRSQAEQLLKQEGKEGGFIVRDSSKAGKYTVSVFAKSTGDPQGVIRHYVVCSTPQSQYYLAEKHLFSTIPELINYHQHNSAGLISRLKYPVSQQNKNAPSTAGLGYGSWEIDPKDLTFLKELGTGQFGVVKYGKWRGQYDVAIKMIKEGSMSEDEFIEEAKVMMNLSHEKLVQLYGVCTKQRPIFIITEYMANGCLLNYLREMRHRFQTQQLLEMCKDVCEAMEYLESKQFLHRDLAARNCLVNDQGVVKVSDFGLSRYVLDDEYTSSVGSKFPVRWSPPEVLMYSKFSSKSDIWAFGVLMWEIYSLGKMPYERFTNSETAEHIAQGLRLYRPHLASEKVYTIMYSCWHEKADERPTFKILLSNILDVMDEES
T10 sequence (Q96SW2 whole entry): as the sequence (Q96SW2 whole entry) above
CRBN-287, sequence (Q96SW2 whole entry): as above
T8 sequence (Q96SW2 whole entry): as above
T5 sequence (Q96SW2 whole entry): as above
CRBN-318, sequence (Q96SW2 whole entry): as above
T17 sequence (Q96SW2 whole entry): as above

inhibition of probe labeling, BTK_481, Den. (BTK_481; denatured state): 99%
inhibition of probe labeling, BTK_481, Nat. (BTK_481; native state): 99%
inhibition of probe labeling, CRBN_318, Den. (CRBN-318): 11%
inhibition of probe labeling, CRBN_287, Den. (CRBN-287): 67%
inhibition of probe labeling, CRBN_205, Den. (CRBN_205): −11%
inhibition of probe labeling, CRBN_205, Nat. (CRBN_205): −23%
inhibition of probe labeling, CRBN_310, Den. (CRBN_310): −1%
inhibition of probe labeling, CRBN_310, Nat. (CRBN_310): 9%
inhibition of probe labeling, CRBN_234, Den. (CRBN_234): −7%
inhibition of probe labeling, CRBN_234, Nat. (CRBN_234): −4%
inhibition of probe labeling, CRBN_326, Den. (CRBN_326): −16%
inhibition of probe labeling, CRBN_322, Den. (CRBN_322): 15%
inhibition of probe labeling, CRBN_322, Nat. (CRBN_322): 36%
inhibition of probe labeling, CRBN_188, Den. (CRBN_188): −21%
inhibition of probe labeling, CRBN_188, Nat. (CRBN_188): −13%
inhibition of probe labeling, CRBN_343, Den. (CRBN_343): −28%
inhibition of probe labeling, CRBN_219, Den. (CRBN_219): 24%
inhibition of probe labeling, CRBN_219, Nat. (CRBN_219): −6%
inhibition of probe labeling, CRBN_441, Den. (CRBN_441): −24%
inhibition of probe labeling, TEC_449, Den. (TEC_449; denatured state): 98%
inhibition of probe labeling, TEC_449, Nat. (TEC_449; native state): 99%
Compound: C=CC(=O)N1CC(Cc2ccc(C)cc2)C1

inhibition at 500 µM (CRBN Cys343; 500 micromolar): -6%
inhibition at 500 µM (CRBN Cys366; 500 micromolar): 2%
inhibition at 500 µM (CRBN Cys219; 500 micromolar, read-out: % inhibition of iodoacetamide probe labeling, Cys219): 31%
inhibition at 500 µM (CRBN Cys287; [1]): 91%
inhibition at 500 µM (CRBN Cys205; 500 micromolar, read-out: % inhibition of iodoacetamide probe labeling, Cys205): 18%
inhibition at 500 µM (CRBN Cys188): 9%
Compound: C=CC(=O)N1CCC(Oc2cc(C(=O)N(C)C)cc(-c3ccccc3OC)c2)CC1 [Example A2]

inhibition at 5 µM (CRBN Cys343; 5 micromolar): 8%
inhibition at 50 µM (CRBN Cys343; 50 micromolar): 51%
inhibition at 0.5 µM (CRBN Cys366; 0.5 micromolar): 3%
inhibition at 5 µM (CRBN Cys366; 5 micromolar): 3%
inhibition at 50 µM (CRBN Cys366; 50 micromolar): 26%
inhibition at 5 µM (CRBN Cys219; 5 micromolar): -3%
inhibition at 50 µM (CRBN Cys219; 50 micromolar): 32%
inhibition at 0.5 µM (CRBN Cys234; 0.5 micromolar): 12%
inhibition at 5 µM (CRBN Cys234; 5 micromolar): 19%
inhibition at 50 µM (CRBN Cys234; 50 micromolar): 32%
inhibition at 2 µM (CRBN Cys287; 2.0 micromolar, read-out: % inhibition of iodoacetamide probe labeling, Cys287): 71%
inhibition at 7.8 µM (CRBN Cys287; 7.8 micromolar): 72%
inhibition at 31.2 µM (CRBN Cys287; 31.2 micromolar, read-out: % inhibition of iodoacetamide probe labeling, Cys287): 95%
inhibition at 125 µM (CRBN Cys287; 125 micromolar, read-out: % inhibition of iodoacetamide probe labeling, Cys287): 94%
inhibition at 500 µM (CRBN Cys287; [1]): 92%
inhibition at 0.5 µM (CRBN Cys318; 0.5 micromolar): 39%
inhibition at 5 µM (CRBN Cys318; 5 micromolar): 67%
inhibition at 50 µM (CRBN Cys318; 50 micromolar): 69%
inhibition at 5 µM (CRBN Cys205; 5 micromolar): -42%
Compound: CC(/C=C(\C#N)C(=O)N1CCC(c2ccccc2)C1)c1ccccc1 (stereo not shown) [Example A7]
